Data as given in paper PMC5684552 (Evidence-based Complementary and Alternative Medicine : eCAM, 2017).

Key:
control oocytes = test: Two-electrode voltage clamp of control oocytes injected with H2O; type: cell-based, X. laevis; conditions: for inward peak current in control oocytes: oocytes injected with 40 nl H2O
[1] = biological target: human TRPV1 receptor channel (Homo sapiens, UniProt Q8NER1); test: Two-electrode voltage clamp of capsaicin-induced current in Xenopus oocytes expressing wild type human TRPV1; type: cell-based; conditions: for inhibition of capsaicin-induced current: 100 μM gomisin A plus 1 μM capsaicin, voltage ramp
TRPV1 A452Y mutant = TRPV1 A452Y mutant (Homo sapiens, UniProt Q8NER1, A453Y); type: cell-based; conditions: holding potential −80 mV
TRPV1 R455A mutant = TRPV1 R455A mutant (Homo sapiens, UniProt Q8NER1, R456A, species not given); type: cell-based; conditions: holding potential −80 mV
TRPV1 Y453A mutant = TRPV1 Y453A mutant (Homo sapiens, UniProt Q8NER1, Y454A, species not given); type: cell-based; conditions: holding potential −80 mV
TRPV1 YNA2 double mutant = TRPV1 YNA2 double mutant (Homo sapiens, UniProt Q8NER1, Y454A, form not given, species not given); type: cell-based; conditions: holding potential −80 mV
TRPV1 L465A mutant = TRPV1 L465A mutant (Homo sapiens, UniProt Q8NER1, form not given, species not given); type: cell-based; conditions: holding potential −80 mV
TRPV1 Y454A mutant = TRPV1 Y454A mutant (Homo sapiens, UniProt Q8NER1, Y455A); type: cell-based; conditions: holding potential −80 mV
TRPV1 T468A mutant = TRPV1 T468A mutant (Homo sapiens, UniProt Q8NER1, T469A, species not given); type: cell-based; conditions: holding potential −80 mV
TRPV1 V469A mutant = TRPV1 V469A mutant (Homo sapiens, UniProt Q8NER1, form not given, species not given); type: cell-based; conditions: holding potential −80 mV
TRPV1 V456A mutant = TRPV1 V456A mutant (Homo sapiens, UniProt Q8NER1, V456A, species not given); type: cell-based; conditions: holding potential −80 mV
TRPV1 K466A mutant = TRPV1 K466A mutant (Homo sapiens, UniProt Q8NER1, form not given, species not given); type: cell-based; conditions: holding potential −80 mV
TRPV1 N467A mutant = TRPV1 N467A mutant (Homo sapiens, UniProt Q8NER1, form not given, species not given); type: cell-based; conditions: holding potential −80 mV
Sequence of TRPV1 N467A mutant (Q8NER1 whole entry, stated change not applied): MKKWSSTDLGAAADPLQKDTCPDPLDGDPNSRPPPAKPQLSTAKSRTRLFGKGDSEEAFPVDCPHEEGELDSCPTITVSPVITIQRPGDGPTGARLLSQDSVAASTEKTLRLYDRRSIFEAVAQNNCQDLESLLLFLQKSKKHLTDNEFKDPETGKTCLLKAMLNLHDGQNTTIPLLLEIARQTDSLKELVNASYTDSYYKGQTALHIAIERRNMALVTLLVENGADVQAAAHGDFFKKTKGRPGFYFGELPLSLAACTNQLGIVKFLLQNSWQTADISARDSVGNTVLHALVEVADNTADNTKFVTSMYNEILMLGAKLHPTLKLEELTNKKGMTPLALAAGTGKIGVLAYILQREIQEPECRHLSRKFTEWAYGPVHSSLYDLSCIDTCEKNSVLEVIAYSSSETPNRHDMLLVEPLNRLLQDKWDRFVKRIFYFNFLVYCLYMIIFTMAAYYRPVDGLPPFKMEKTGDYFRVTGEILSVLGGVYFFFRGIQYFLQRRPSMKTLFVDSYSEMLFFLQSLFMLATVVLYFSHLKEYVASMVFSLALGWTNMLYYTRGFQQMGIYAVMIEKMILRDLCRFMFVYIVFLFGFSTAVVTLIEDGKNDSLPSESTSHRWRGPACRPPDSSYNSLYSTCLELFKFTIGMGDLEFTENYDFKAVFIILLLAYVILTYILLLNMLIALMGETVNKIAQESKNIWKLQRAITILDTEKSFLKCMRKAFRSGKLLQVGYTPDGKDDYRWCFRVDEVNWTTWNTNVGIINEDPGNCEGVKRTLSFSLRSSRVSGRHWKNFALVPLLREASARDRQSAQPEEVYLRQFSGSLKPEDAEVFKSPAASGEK

Sequence of human TRPV1 receptor channel (Q8NER1 whole entry): as the sequence (Q8NER1 whole entry, stated change not applied) above
Sequence of TRPV1 A452Y mutant (Q8NER1 whole entry A453Y): as the sequence (Q8NER1 whole entry, stated change not applied) above, with A453Y counted along it
Sequence of TRPV1 V469A mutant (Q8NER1 whole entry, stated change not applied): as the sequence (Q8NER1 whole entry, stated change not applied) above
Sequence of TRPV1 L465A mutant (Q8NER1 whole entry, stated change not applied): as above
Sequence of TRPV1 Y453A mutant (Q8NER1 whole entry Y454A): as the sequence (Q8NER1 whole entry, stated change not applied) above, with Y454A counted along it
Sequence of TRPV1 Y454A mutant (Q8NER1 whole entry Y455A): as the sequence (Q8NER1 whole entry, stated change not applied) above, with Y455A counted along it
Sequence of TRPV1 V456A mutant (Q8NER1 1-837 isoform Q8NER1-3 V456A): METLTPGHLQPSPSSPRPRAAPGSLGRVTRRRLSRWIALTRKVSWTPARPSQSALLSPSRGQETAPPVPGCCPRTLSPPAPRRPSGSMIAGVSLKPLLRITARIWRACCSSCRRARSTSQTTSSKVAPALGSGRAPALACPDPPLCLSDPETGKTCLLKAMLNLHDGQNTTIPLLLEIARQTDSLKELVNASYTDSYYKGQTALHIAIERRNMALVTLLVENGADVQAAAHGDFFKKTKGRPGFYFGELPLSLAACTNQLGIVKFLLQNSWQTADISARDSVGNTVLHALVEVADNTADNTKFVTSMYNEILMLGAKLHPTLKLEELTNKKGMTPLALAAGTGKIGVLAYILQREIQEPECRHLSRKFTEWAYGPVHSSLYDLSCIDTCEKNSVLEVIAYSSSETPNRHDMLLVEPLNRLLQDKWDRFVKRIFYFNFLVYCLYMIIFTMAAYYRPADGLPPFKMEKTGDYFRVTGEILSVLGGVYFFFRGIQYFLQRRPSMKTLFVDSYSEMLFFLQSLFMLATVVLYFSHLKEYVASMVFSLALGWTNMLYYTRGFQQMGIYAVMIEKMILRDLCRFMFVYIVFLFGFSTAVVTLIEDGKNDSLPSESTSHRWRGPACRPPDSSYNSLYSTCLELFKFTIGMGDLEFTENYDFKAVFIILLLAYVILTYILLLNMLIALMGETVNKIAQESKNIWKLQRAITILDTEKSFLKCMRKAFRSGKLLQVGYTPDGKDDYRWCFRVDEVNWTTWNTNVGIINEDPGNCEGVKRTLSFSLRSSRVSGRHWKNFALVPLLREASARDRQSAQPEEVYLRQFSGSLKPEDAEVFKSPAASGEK
Sequence of TRPV1 K466A mutant (Q8NER1 1-837 isoform Q8NER1-3, stated change not applied): as the sequence (Q8NER1 1-837 isoform Q8NER1-3 V456A) above, with A456V counted along it
Sequence of TRPV1 T468A mutant (Q8NER1 whole entry T469A): as the sequence (Q8NER1 whole entry, stated change not applied) above, with T469A counted along it
Sequence of TRPV1 R455A mutant (Q8NER1 whole entry R456A): as the sequence (Q8NER1 whole entry, stated change not applied) above, with R456A counted along it
Sequence of TRPV1 YNA2 double mutant (Q8NER1 whole entry Y454A, form open): as the sequence (Q8NER1 whole entry, stated change not applied) above, with Y454A counted along it

COc1cc(CNC(=O)CCCC/C=C/C(C)C)ccc1O [capsaicin, reference compound]
inward peak current in control oocytes (control oocytes; 1 μM): did not result in any inward peak current | reversal membrane voltage potential of capsaicin-induced inward current ([1]; 1 μM capsaicin, ramp −100 to +80 mV): ~−10 mV | effect of agonist on current ([1]; 1 μM, holding potential −80 mV): stimulated an inward current

Oc1cc2c(cc1O)CN(C(=S)NCCc1ccc(Cl)cc1)CCC2 [capsazepine, reference compound]
effect of antagonist on capsaicin-stimulated inward current ([1]; 10 μM capsazepine cotreated with 1 μM capsaicin): blocked the capsaicin-stimulated inward current | inhibition at 10 µM ([1]; 10 μM capsazepine cotreated with 1 μM capsaicin, −80 mV, read-out: percent inhibition of capsaicin-induced inward current): 79.5 ± 4.5%

gomisin A
Vmax (TRPV1 A452Y mutant): 79.2 ± 3.1 | n (Hill coefficient) (TRPV1 A452Y mutant): 2.2 ± 0.8 | Vmax (TRPV1 R455A mutant): 64.4 ± 2.6 | n (Hill coefficient) (TRPV1 R455A mutant): 1.7 ± 0.6 | Vmax (TRPV1 Y453A mutant): 38.3 ± 2.4 | n (Hill coefficient) (TRPV1 Y453A mutant): 1.2 ± 0.5 | inward current in control oocytes on coapplication (control oocytes; 10 μM gomisin A coapplied with 1 μM capsaicin, H2O-injected oocytes): did not result in an inward current | inward peak current in control oocytes (control oocytes; 10 μM): did not result in any inward peak current | Vmax (TRPV1 YNA2 double mutant): 17.9 ± 6.5 | Vmax (TRPV1 L465A mutant): 68.3 ± 3.5 | n (Hill coefficient) (TRPV1 L465A mutant): 1.8 ± 0.3 | Vmax (TRPV1 Y454A mutant): 59.2 ± 3.0 | n (Hill coefficient) (TRPV1 Y454A mutant): 2.2 ± 0.8 | Vmax (TRPV1 T468A mutant): 67.9 ± 1.5 | n (Hill coefficient) (TRPV1 T468A mutant): 1.6 ± 0.5 | effect of compound alone on currents of human TRPV1 receptor ([1]; 100 μM alone, holding potential −80 mV): had no effect | percent inhibition of capsaicin-induced inward current ([1]; 100 μM gomisin A coapplied with 1 μM capsaicin, −80 mV): 46.5 ± 4.5% | inhibition of capsaicin-induced current ([1]; at +80 mV): 42.6 ± 11.2% | inhibition of capsaicin-induced current ([1]; at −100 mV): 71.1 ± 16.2% | Vmax ([1]; […], inhibition of capsaicin-induced current, holding potential −80 mV): 72.9 ± 1.0 | manner of attenuation of capsaicin-elicited inward peak currents ([1]; cotreatment with capsaicin): reversible, voltage insensitive, concentration dependent, and noncompetitive | percent inhibition of capsaicin-induced inward current ([1]; preapplication of gomisin A, 1 μM capsaicin): 48.2 ± 7.2% | Vmax (TRPV1 V469A mutant): 72.5 ± 5.6 | n (Hill coefficient) (TRPV1 V469A mutant): 2.1 ± 0.7 | Vmax (TRPV1 V456A mutant): 91.5 ± 2.6 | n (Hill coefficient) (TRPV1 V456A mutant): 1.8 ± 0.8 | Vmax (TRPV1 K466A mutant): 64.7 ± 2.1 | n (Hill coefficient) (TRPV1 K466A mutant): 2.3 ± 0.5 | Vmax (TRPV1 N467A mutant): 24.7 ± 2.0 | n (Hill coefficient) (TRPV1 N467A mutant): 1.3 ± 0.5
